Laboratory results reported in patent publication US4510132A, “Compounds for use in antibacterial therapy” (priority 1982, dated 1985).
“Also recorded” adds a separate entry of the source.

What was measured:
[1] = system: Salmonella typhimurium LT2 strain SL 696; assay: MIC of antibiotics in the presence of polymyxin nonapeptide, microtiter plate, S. typhimurium; assay type: cell-based; conditions: S. typhimurium SL 696
Protocol: (§1) Methods. Smooth Salmonella typhimurium LT2 strain SL 696 (Wilkinson et al 1972 J. Gen. Microbiol. 70,527) was used as indicator organism. It was grown in Luria broth (Miller 1972. Experience in molecular genetics, Cold Spring Harbor Laboratory, New York) at 37° C. in a rotary shaker (220 rpm) into early logarithmic growth phase (Klett 40 units, Klett-Summerson colorimeter, red filter) washed with 0.9% NaCl and resuspended in 0.9% NaCl (final optical density 120 Klett units corresponding to approx. 10^9 cells/ml).
(§2) Erythromycin ethylsuccinate stock solution was prepared by dissolving 5.5 mg of erythromycin […] with 2 ml of 96% ethanol whereafter deionized water was added to a final volume of 5.5 ml. Other antibiotics were readily dissolved in deionized water.
(§3) Experimental procedure: Davis minimal growth medium (Sanderson et al, 1972, Bact. Rev. 36,608) containing glucose (1 g/l), casaminoacids (1 g/l. Difco), tryptophan (20 mg/l), and increasing amounts of a particular antibiotic was inoculated with 10^4 cells per ml of a fresh suspension of indicator bacteria. Aliquots (200 μl) of this inoculated medium were pipetted in wells of a microtiter plate (Titertek, CAT NO. 76-213-05, Flow Laboratories, United States). Each well already contained increasing amounts of the particular polycationic agent in 30 μl of 0.9% NaCl. The plates were sealed with adhesive tape and incubated at 37° C. for 18 h.
(§4) Methods. The known compound, polymyxin E nonapeptide (colistin E nonapeptide, Japanese patent specification Nos. 4178/1971 and 51355/1972) having the following formula: [drawing 5] where leu is leucine, thr is threonine, and dab is diaminobutyric acid, was prepared from polymyxin E (colistin) using an enzymatic ficin treatment as described by Chihara et al (Agr. Biol. Chem. 37,2455, 1973).

[2] = system: E. coli strains IHE 3080, EH 817, IHE 11038, IHE 11055, IHE 11167; assay: Sensitization of E. coli strains to killing by 10% normal human serum (complement); assay type: cell-based
Protocol: Methods. The strains used were smooth Salmonella typhirmurium LT2 strain SL 696 (Wilkinson et al 1972 J. Gen. Microbiol. 70, 527) and the following E. coli strains isolated at the National Public Health Institute, Helsinki: IHE 3080 (018,K1), EH 817 (018,K1^- derivative of IHE 3080), IHE 11038 (018,K5), IHE 11055 (02,K1), and IHE 11167 (04,K12). Bacteria were grown in Luria broth (Miller 1972. Experiments in molecular genetics, Cold Spring Harbor Laboratory, New York) at 37° C. in a rotary shaker (220 rpm) into early logaritmic growth phase (Klett 40 units, Klett-Summerson colorimeter, red filter) washed with PBS (phosphate buffered saline, 8.0 g of NaCl, 0.2 g of KCl, 1.44 g of Na2 HPO4 x2H2 O and 0.2 g of KH2 PO4 per liter) and resuspended in PBS, (final optical density 120 Klett units corresponding to approx. 10^9 cells/ml).
Pooled normal human serum from 39 healthy blood donors was used as complement source. It was stored at -70° C. before use.
Experimental procedure: 10% NHS in PBS was inoculated with approx. 300 cells of freshly grown bacteria and pipetted in 200 μl aliquots in wells of mictrotiter plate (Titertek®, CAT NO. 76-213-05). The wells already contained increasing amounts of PMBN in 30 μl of 0.9% NaCl. […] The agar plates were incubated overnight at 37° C. and the developed colonies were counted.

[3] = system: E. coli strain IH 3080 (018:K1); assay: MIC of antibiotics in the presence of polymyxin nonapeptide, microtiter plate, E. coli; assay type: cell-based; conditions: E. coli
Protocol: as §1, §2, §3
Methods. The methods were those presented in Example 3 except that E. coli was used as the test organism. The E. coli strain was IH 3080 (018:K1) isolated from the cerebrospinal fluid of a neonate with meningitis.
as §4

[4] = Chihara et al 1973, 1974; cited from earlier work
mice = conditions: Chihara et al, Kajiwara et al; cited from earlier work

## polymyxin B nonapeptide [PMBN]
[1]
  concentration of PMBN required to sensitize the bacteria to most antibiotics by a factor of 10-30: 1-3 μg/ml
[2]; E. coli strains, 10% normal human serum, 2 h
  concentration of PMBN that sensitized the strains to killing by 10% NHS: 0.3 µg/mL
[2]; complement destroyed by heat (30 min at 56° C.) or zymosan A
  bactericidal action of serum in the presence of PMBN after inactivation of complement: the serum lost its capacity to kill bacteria; also recorded: NHS lost its bactericidal, PMBN-dependent action
[3]
  amount of PMBN sufficient to sensitize E. coli to erythromycin and fusidic acid by a factor of 30: 0.3 µg

## polymyxin E nonapeptide [PMEN]
[4]
  antibacterial activity compared with colistin: lack the antibacterial activity of colistin
mice
  toxicity to eukaryotes (mice) compared with parent compound colistin: significantly less toxic
